Among the test systems are NCI-H460; CCRF-CEM; HCC 2998; Malme-3M; HT-29; NCI-H23; SF-268; UACC-62; EKVX; DU-145; SK-MEL-2; A549; K562; KM12; T47D; OVCAR-4; HCT-116; RXF 393; CAKI-1.
Common to all, as to assay: NCI anticancer screen, dose series, 48 h

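Cultured in 96-well plates, cells were exposed to test compound for 48 hours across five concentrations. GI50 marks 50% less growth.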 Active and inactive are the calls of the source. No stated cut-off is given here; in the data, active = GI50 up to about 1.1 µM and inactive = higher. Where only a bound is given, the exact number is not on record here.

Take `CN(C)c1ccc(/C=C/c2ccnc3ccccc23)cc1N`: the GI50 was 8.24 µM (inactive) in the test with NCI-H460; 3 µM (inactive) in the test on CCRF-CEM; 10.1 µM (inactive) with HCC 2998; 10.9 µM (inactive) in the test with Malme-3M; 4.49 µM (inactive) in the test on HT-29; 5.68 µM (inactive) in the test with NCI-H23. Further, the GI50 was 9.73 µM (inactive) in the test with SF-268; 12.1 µM (inactive) in the test with UACC-62; 4.72 µM (inactive) in the test with EKVX; 10.4 µM (inactive) with DU-145; 8.65 µM (inactive) in the test with SK-MEL-2; 6.81 µM (inactive) with A549. The GI50 is 3.98 µM (inactive) in the test with K562, 7.85 µM (inactive) in the test with KM12, 0.547 µM (active) with T47D and 10.5 µM (inactive) in the test with OVCAR-4.
Take `COC(=O)c1c2c(cc3c1CC1(C3)Cc3cc4c(c(C(=O)OC)c3C1)CCCC4)CCCC2`: the GI50 with CCRF-CEM was 30.5 µM (inactive); in the test with HCC 2998, > 100 µM (inactive); with Malme-3M, > 100 µM (inactive); with HCT-116, > 100 µM (inactive); in the test on HT-29, > 100 µM (inactive); in the test on NCI-H23 it was > 100 µM (inactive). In addition, the GI50 in the test with UACC-62 is > 100 µM (inactive); in the test with EKVX it was > 100 µM (inactive); in the test with SK-MEL-2, 1.55 µM (inactive); with A549, > 100 µM (inactive); with RXF 393 it was > 100 µM (inactive); with K562 it was 43 µM (inactive). The GI50 in the test on KM12, with T47D and in the test on OVCAR-4 was > 100 µM (inactive) each time.
Turning to `O=C(N/C(=C\c1ccc(/C=C(\NC(=O)c2ccccc2)c2nc3c(O)nc(S)nc3[nH]2)cc1)c1nc2c(O)nc(S)nc2[nH]1)c1ccccc1`, the GI50 with NCI-H460 is > 100 µM (inactive); with CCRF-CEM, 26.2 µM (inactive); in the test with HCC 2998, > 100 µM (inactive); in the test with Malme-3M it was > 100 µM (inactive); in the test with HCT-116 it was 44.8 µM (inactive); with HT-29 it was 75 µM (inactive). Besides, the GI50 in the test with NCI-H23 is 55.7 µM (inactive); in the test on SF-268 it was 57.9 µM (inactive); with UACC-62, 34.3 µM (inactive); with EKVX it was > 100 µM (inactive); with SK-MEL-2, 8.71 µM (inactive); in the test on CAKI-1 it was > 100 µM (inactive). The GI50 in the test on A549 was > 100 µM (inactive); in the test on RXF 393 it was 38.6 µM (inactive); with K562, 30.3 µM (inactive); in the test with KM12, > 100 µM (inactive); in the test with OVCAR-4 it was 25.9 µM (inactive).
For the molecule `COc1cc2nc(NCCCCCNC(=O)c3ccco3)nc(N)c2cc1OC`, the GI50 in the test on NCI-H460 was 32 µM (inactive); with CCRF-CEM it was 28.5 µM (inactive); with HCC 2998, 19.4 µM (inactive); in the test with Malme-3M it was 17.4 µM (inactive); with HT-29, 33.9 µM (inactive); with NCI-H23 it was 87.7 µM (inactive). Besides, the GI50 in the test on SF-268 is 36.2 µM (inactive); in the test with UACC-62, 22.2 µM (inactive); in the test with EKVX, > 100 µM (inactive); in the test with SK-MEL-2, 19.7 µM (inactive); in the test on CAKI-1, 42.6 µM (inactive); with A549, 74.8 µM (inactive). Moreover, the GI50 in the test on RXF 393 was 27.6 µM (inactive); with K562, 29.1 µM (inactive); in the test with KM12, 24 µM (inactive); in the test on OVCAR-4 it was 29.3 µM (inactive).
On to `O=C(C[n+]1ccccc1)N/N=C(/CCC(=O)N(Cc1ccccc1)Cc1ccccc1)CC(=O)c1ccccc1`, for which the GI50 in the test on NCI-H460, with CCRF-CEM, in the test with HCC 2998, in the test with Malme-3M, in the test on HCT-116 and in the test on HT-29 was > 100 µM (inactive) in each case. In addition, the GI50 in the test on NCI-H23, with SF-268, in the test on UACC-62, in the test with EKVX, in the test on SK-MEL-2 and in the test on CAKI-1 was > 100 µM (inactive) throughout. The GI50 with A549, with RXF 393, in the test on K562, with KM12 and with OVCAR-4 was > 100 µM (inactive) throughout.
Regarding `O=[N+]([O-])c1ccccc1/C=N/C12CC3CC(CC(C3)C1)C2`, the GI50 was > 100 µM (inactive) in the test with NCI-H460; 30.9 µM (inactive) with CCRF-CEM; 38.1 µM (inactive) in the test with HCC 2998; 66.1 µM (inactive) with Malme-3M; 39.3 µM (inactive) with HCT-116; 34.3 µM (inactive) in the test on HT-29. In addition, the GI50 was > 100 µM (inactive) in the test on NCI-H23; > 100 µM (inactive) in the test with SF-268; > 100 µM (inactive) in the test with UACC-62; > 100 µM (inactive) in the test on EKVX; 65.8 µM (inactive) in the test on SK-MEL-2; 49.5 µM (inactive) with CAKI-1. In addition, the GI50 was > 100 µM (inactive) in the test on A549; > 100 µM (inactive) with RXF 393; 29.8 µM (inactive) in the test with K562; 37.3 µM (inactive) in the test on KM12; 87.7 µM (inactive) in the test on OVCAR-4.
As for `CN(C)C(=O)c1ccc([N+](=O)[O-])cc1`, the GI50 in the test with NCI-H460, in the test with CCRF-CEM, in the test with HCC 2998, with Malme-3M, in the test on HCT-116 and in the test with HT-29 was > 100 µM (inactive) throughout. For the same molecule, the GI50 in the test with NCI-H23, in the test with SF-268, in the test with UACC-62, in the test on EKVX, in the test with SK-MEL-2 and in the test with CAKI-1 was > 100 µM (inactive) in each case. In addition, the GI50 in the test with A549, in the test with RXF 393, in the test with K562, with KM12 and in the test on OVCAR-4 was > 100 µM (inactive) throughout.
With `CC(C)c1c2[nH]c3ccccc3c2c(C(C)C)c2[nH]c3ccccc3c12`, the GI50 in the test on NCI-H460 was > 57.7 µM (inactive); with CCRF-CEM, > 52.5 µM (inactive); in the test with HCC 2998, > 34.8 µM (inactive); in the test with Malme-3M, > 51.4 µM (inactive); in the test with HCT-116 it was > 67.3 µM (inactive); in the test on HT-29, 10.9 µM (inactive). In addition, the GI50 is > 100 µM (inactive) in the test with NCI-H23; > 100 µM (inactive) with SF-268; > 100 µM (inactive) in the test with UACC-62; > 100 µM (inactive) in the test on EKVX; > 100 µM (inactive) in the test with SK-MEL-2; > 76.6 µM (inactive) in the test on CAKI-1. In addition, the GI50 in the test on A549 is > 100 µM (inactive); in the test with RXF 393, > 100 µM (inactive); with K562, 7.78 µM (inactive); in the test on KM12, 29.9 µM (inactive); with OVCAR-4, > 45.3 µM (inactive).
For `Cc1cc(O)cc2oc(=O)c3c(O)cc(O)cc3c12` [ALTERNARIOL], the GI50 in the test with NCI-H460 was 13.1 µM (inactive); in the test on CCRF-CEM it was 23.4 µM (inactive); in the test on HCC 2998, 18.5 µM (inactive); in the test on Malme-3M it was 40.3 µM (inactive); with HCT-116, 17.6 µM (inactive); in the test on HT-29, 39.3 µM (inactive). Further, the GI50 was 20.7 µM (inactive) in the test with NCI-H23; 27.4 µM (inactive) with SF-268; 24 µM (inactive) in the test on UACC-62; 6.71 µM (inactive) in the test with EKVX; 37.6 µM (inactive) with SK-MEL-2; 21 µM (inactive) in the test on CAKI-1. For the same molecule, the GI50 was 16.1 µM (inactive) in the test on A549; 23.3 µM (inactive) in the test on RXF 393; 36.6 µM (inactive) with K562; 26.8 µM (inactive) in the test on KM12; 65.3 µM (inactive) with OVCAR-4.
